For 8 compounds, GI50 and TGI results are on record in PubChem BioAssay (NCI).

Values joined by “and” are separate entries in the source; they are usually repeats but may differ in a detail not shown here. Equal values may be shown once.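 1) Cells in 96-well plates. 2) Compound, 48 h, 5 concentrations. 3) Linear interpolation between surrounding doses. 4) Unreached endpoint = highest concentration. Here, GI50 denotes the concentration required for 50% inhibition of growth. TGI marks complete inhibition of growth.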

Some test systems named below: CCRF-CEM leukemia; HCT-116 colon; MALME-3M melanoma; OVCAR-3 ovarian; OVCAR-4 ovarian; PC-3 prostate; RXF 393 renal; SF-539 CNS; TK-10 renal; SNB-19 CNS.
What all share (assay): inhibition of tumour cell growth, NCI panel, 48 h

For `C=C1C(=O)O[C@H]2[C@H]1CC/C(COC(=O)NCCCCCCCCNC(=O)OC/C1=C/CC[C@@]3(C)O[C@H]3[C@H]3OC(=O)C(=C)[C@@H]3CC1)=C\CC[C@@]1(C)O[C@@H]21`, the GI50 in the assay with CCRF-CEM leukemia was 0.255 µM; with HCT-116 colon, 0.198 µM; in the assay on MALME-3M melanoma, 0.199 µM; in the assay on OVCAR-3 ovarian, 0.33 µM; in the assay with OVCAR-4 ovarian, 0.521 µM; in the assay on PC-3 prostate it was 0.385 µM. Moreover, the GI50 with RXF 393 renal is 0.162 µM; with SF-539 CNS, 0.235 µM; in the assay with TK-10 renal, 0.284 µM. In addition, the TGI in the assay on CCRF-CEM leukemia amounted to 0.837 µM; with HCT-116 colon it was 0.407 µM; with MALME-3M melanoma it was 0.43 µM; in the assay on OVCAR-3 ovarian it was 1.06 µM; in the assay on OVCAR-4 ovarian it was 1.86 µM; with PC-3 prostate, 1.63 µM. Moreover, the TGI in the assay with RXF 393 renal was found to be 0.322 µM; in the assay on SF-539 CNS, 0.599 µM; with TK-10 renal, 0.855 µM.

Regarding `Cc1cc(=O)oc2cc(OC/C=C3\CCC(=O)O3)ccc12`, the GI50 was 3.96 µM with CCRF-CEM leukemia; 8.38 µM in the assay on HCT-116 colon; 13.6 µM in the assay on MALME-3M melanoma; 12.2 µM with OVCAR-3 ovarian; 15.8 µM with OVCAR-4 ovarian; 9.01 µM in the assay with PC-3 prostate. Also, the GI50 was 13.1 µM in the assay with RXF 393 renal, 13.1 µM with SF-539 CNS, 15.5 µM in the assay with SNB-19 CNS and 12.2 µM in the assay with TK-10 renal. The TGI amounted to 30.3 µM in the assay with CCRF-CEM leukemia; 24.6 µM with HCT-116 colon; 33 µM with MALME-3M melanoma; 28.8 µM in the assay on OVCAR-3 ovarian; 37.4 µM in the assay with OVCAR-4 ovarian; 34.1 µM with PC-3 prostate. Moreover, the TGI with RXF 393 renal came out at 31.9 µM; in the assay with SF-539 CNS, 46.1 µM; in the assay on SNB-19 CNS it was 49.2 µM; in the assay on TK-10 renal, 27.2 µM.

For `COc1ccc2c(c1)C(=O)c1c-2c(Nc2cccc(C(C)=O)c2)nc2ccccc12`, the GI50 is above 100 µM in the assay with CCRF-CEM leukemia; 2.64 µM with HCT-116 colon; 18 µM in the assay on MALME-3M melanoma; 19.7 µM in the assay with OVCAR-3 ovarian; 15.5 µM with OVCAR-4 ovarian; 14.3 µM with PC-3 prostate. Further, the GI50 with RXF 393 renal is 9.79 µM; in the assay with SF-539 CNS it was 10.2 µM; in the assay on SNB-19 CNS, 5.99 µM; with TK-10 renal, 24.8 µM. The TGI in the assay with CCRF-CEM leukemia is above 100 µM; in the assay on HCT-116 colon it was 10.9 µM; in the assay on MALME-3M melanoma, 48.3 µM; with OVCAR-3 ovarian, 42.8 µM; in the assay on OVCAR-4 ovarian, above 100 µM; with PC-3 prostate, 32.5 µM. The TGI with RXF 393 renal came out at 31.5 µM; in the assay on SF-539 CNS, 22.2 µM; in the assay with SNB-19 CNS it was 18.3 µM; in the assay on TK-10 renal, 65 µM.

On to `O=C1C=CC2(C=C1)C[C@H](NC(=O)OCc1ccccc1)C(=O)O2`, for which the TGI in the assay on CCRF-CEM leukemia stood at 10 µM; in the assay on HCT-116 colon, 40.3 µM; in the assay on MALME-3M melanoma, 26.6 µM; with OVCAR-3 ovarian it was 30.4 µM; in the assay on OVCAR-4 ovarian it was 39.6 µM; with PC-3 prostate it was 29.9 µM. Further, the TGI with RXF 393 renal is 24.9 µM; in the assay with SF-539 CNS it was 44.5 µM; with SNB-19 CNS it was above 100 µM; with TK-10 renal, 32.4 µM.

As to `Cc1ccc(S(=O)(=O)Nc2ccc(-c3cc(-c4cccc(F)c4)c(C#N)c(N)n3)cc2)cc1`, the GI50 with CCRF-CEM leukemia is 2.26 µM; with HCT-116 colon it was 1.69 µM; in the assay with MALME-3M melanoma, 1.61 µM; with OVCAR-3 ovarian, 1.63 µM; with OVCAR-4 ovarian, 1.77 µM; in the assay with PC-3 prostate it was 2.19 µM. In addition, the GI50 is 1.44 µM in the assay on RXF 393 renal, 1.56 µM in the assay on SF-539 CNS, 3.15 µM in the assay with SNB-19 CNS and 1.66 µM with TK-10 renal. Further, the TGI with CCRF-CEM leukemia stood at 30.8 µM; in the assay on HCT-116 colon it was 3.23 µM; in the assay with MALME-3M melanoma it was 3.25 µM; with OVCAR-3 ovarian, 3.12 µM; with OVCAR-4 ovarian, 3.67 µM; in the assay with PC-3 prostate, 7.56 µM. Also, the TGI came out at 2.79 µM in the assay with RXF 393 renal, 3.02 µM in the assay with SF-539 CNS, 11.6 µM in the assay with SNB-19 CNS and 3.17 µM in the assay with TK-10 renal.

Turning to `COc1cccc2c1C(=O)c1c(O)c3c(c(O)c1C2=O)CC(O)(C(=O)CO)CC3OC1CC(N)C(O)C(C)O1` (stereo unspecified), the GI50 in the assay on CCRF-CEM leukemia is 0.801 µg/mL and 4.97 µg/mL; in the assay on HCT-116 colon, 7.26 µg/mL and 17.4 µg/mL; with MALME-3M melanoma it was 10 µg/mL and 81.4 µg/mL; in the assay on OVCAR-3 ovarian, 22.6 µg/mL and 35.8 µg/mL; in the assay on OVCAR-4 ovarian, 46.6 µg/mL and > 150 µg/mL; in the assay with PC-3 prostate, 37.2 µg/mL and 52.2 µg/mL. The GI50 in the assay with RXF 393 renal is 13.3 µg/mL and > 150 µg/mL; in the assay on SF-539 CNS, 38.3 µg/mL and 18.8 µg/mL; in the assay on SNB-19 CNS, 2.04 µg/mL and 54.6 µg/mL; in the assay on TK-10 renal, 75 µg/mL and 30 µg/mL. The TGI in the assay on HCT-116 colon is 75 µg/mL and > 150 µg/mL; in the assay on MALME-3M melanoma, 75 µg/mL and > 150 µg/mL; in the assay on OVCAR-3 ovarian, 75 µg/mL and > 150 µg/mL; in the assay on OVCAR-4 ovarian, 75 µg/mL and > 150 µg/mL; in the assay with PC-3 prostate it was 75 µg/mL and > 150 µg/mL; in the assay on RXF 393 renal it was 75 µg/mL and > 150 µg/mL. Moreover, the TGI in the assay on SF-539 CNS is 75 µg/mL and 94.8 µg/mL; in the assay with SNB-19 CNS it was 75 µg/mL and > 150 µg/mL; in the assay on TK-10 renal, 75 µg/mL and > 150 µg/mL.

On to `O=C(O)CCC(C(=O)O)N1C(=O)C2C3CCC(C3)C2C1=O` (stereo unspecified), for which the TGI with HCT-116 colon, in the assay on MALME-3M melanoma, with OVCAR-3 ovarian, in the assay on OVCAR-4 ovarian, in the assay with PC-3 prostate and in the assay on RXF 393 renal was above 100 µM throughout. Moreover, the TGI with SF-539 CNS, in the assay on SNB-19 CNS and in the assay on TK-10 renal was above 100 µM in each case.

As for `CN1CCN(Cc2ccc(NC(=O)c3cncc(C#Cc4cnc(N)c5cnccc45)c3)cc2C(F)(F)F)CC1`, the GI50 in the assay with CCRF-CEM leukemia was 0.335 µM; with HCT-116 colon, 0.142 µM; with MALME-3M melanoma it was 0.036 µM; in the assay with OVCAR-3 ovarian, 0.337 µM; with OVCAR-4 ovarian, 0.129 µM; with PC-3 prostate, 0.284 µM. Besides, the GI50 in the assay with RXF 393 renal was 0.147 µM; in the assay with SF-539 CNS, 0.157 µM; in the assay with SNB-19 CNS, 1.76 µM; in the assay on TK-10 renal, 0.436 µM. The TGI in the assay on CCRF-CEM leukemia was determined as 8.71 µM; in the assay on HCT-116 colon, 1.74 µM; in the assay with MALME-3M melanoma, 0.176 µM; in the assay with OVCAR-3 ovarian, 8.43 µM; in the assay with OVCAR-4 ovarian, 7.52 µM; in the assay with PC-3 prostate it was 8.97 µM. Also, the TGI with RXF 393 renal came out at 0.565 µM; in the assay with SF-539 CNS it was 0.628 µM; in the assay on SNB-19 CNS it was 10.9 µM; with TK-10 renal it was 6.73 µM.
